Data taken from patent publication US5093331A, “Labdane derivatives, a process for their preparation, and their use as medicaments” (Hoechst Aktiengesellschaft, priority 1987, dated 1992).
≈ marks a conversion by molar mass, not a printed value. Structures can show the parent of a compound that is named as a salt.

system: Guineapig atrium; assay: Positive inotropic effect, isolated electrically stimulated guineapig atrium; format: cell-based; settings: Cavia porcellus, Table III, formula Ia, 32° C., contractility recorded 7 to 10 minutes
Description: Positive inotropic effect
The following method was used:
Guineapigs of both sexes and weighing 400 g are sacrificed, and the heart is removed and placed in Ringer's solution at room temperature. Both the left and the right atria are then isolated and fixed in an organ holder, and the preparation is placed in a bath containing Ringer's solution and maintained at a temperature of 32° C. A mixture of 95% O2 and 5% CO2 is then bubbled through the organ bath and the atrium is electrically stimulated. The compound to be tested is dissolved in water to give a solution of known concentration and is added to the bath. The contractility of the atrium is recorded for 7 to 10 minutes on a Nihon Kohden 4-channel pen recorder with an isometric strain gage. The activity is expressed on the basis of the resulting data as the EC50.
The results obtained in this model are indicated for representative compounds of the invention in Tables III and IV which follow: […]

| EC50 | SMILES |
| --- | --- |
| 0.545 µg/mL (≈ 0.839 µM) | C=C[C@@]1(C)CC(=O)[C@]2(O)[C@@]3(C)[C@@H](O)CCC(C)(C)[C@@H]3[C@H](O)[C@H](OC(=O)COC(=O)CNc3cc(OC)c(OC)c(OC)c3)[C@@]2(C)O1 [drawing 48] |
| 0.18 µg/mL (≈ 0.287 µM) | C=C[C@@]1(C)CC(=O)[C@]2(O)[C@@]3(C)[C@@H](O)CCC(C)(C)[C@@H]3[C@H](O)[C@H](OC(=O)COC(=O)CN3CCC(c4ccccc4)CC3)[C@@]2(C)O1 [drawing 49] |
| 0.1 µg/mL (≈ 0.176 µM) | C=C[C@@]1(C)CC(=O)[C@]2(O)[C@@]3(C)[C@@H](O)CCC(C)(C)[C@@H]3[C@H](O)[C@H](OC(=O)COC(=O)CN3CCN(C)CC3)[C@@]2(C)O1 [drawing 50] |
| 1.42 µg/mL (≈ 2.56 µM) | C=C[C@@]1(C)CC(=O)[C@]2(O)[C@@]3(C)[C@@H](O)CCC(C)(C)[C@@H]3[C@H](O)[C@H](OC(=O)COC(=O)CN3CCOCC3)[C@@]2(C)O1 [drawing 51] |
| > 1 µg/mL | C=C[C@@]1(C)CC(=O)[C@]2(O)[C@@]3(C)[C@@H](O)CCC(C)(C)[C@@H]3[C@H](O)[C@H](OC(=O)COC(=O)CN3CCN(C(=O)OCC)CC3)[C@@]2(C)O1 [drawing 52] |

| SMILES | EC50 |
| --- | --- |
| C=C[C@@]1(C)CC(=O)[C@]2(O)[C@@]3(C)[C@@H](O)CCC(C)(C)[C@@H]3[C@H](O)[C@H](OC(=O)COC(=O)CN(CC)CC)[C@@]2(C)O1 [1 N(C2 H5)2, 8,13-Epoxy-7β-(2-N,N-diethylglycinyloxyacetoxy)-1α,6β,9α-trihydroxylabd-14-en-11-one hydrochloride] | 0.03 µg/mL |
| C=C[C@@]1(C)CC(=O)[C@]2(O)[C@@]3(C)[C@@H](O)CCC(C)(C)[C@@H]3[C@H](O)[C@H](OC(=O)COC(=O)CN)[C@@]2(C)O1 [1 NH2, 8,13-Epoxy-7β-(2-glycinyloxyacetoxy)-1α,6β,9α-trihydroxylabd-14-en-11-one monohydrochloride] | 0.1 µg/mL |
| C=C[C@@]1(C)CC(=O)[C@]2(O)[C@@]3(C)[C@@H](O)CCC(C)(C)[C@@H]3[C@H](O)[C@H](OC(=O)COC(=O)CN(C(C)C)C(C)C)[C@@]2(C)O1 [1 N[CH(CH3)2]2, 8,13-Epoxy-7β-(2-diisopropylaminoacetoxyacetoxy)-1α, 6β,9α-trihydroxylabd-14-en-11-one hydrochloride sesquihydrate] | 1 µg/mL |

same assay, conditions: Cavia porcellus, Table IV, formula Ib, 32° C., contractility recorded 7 to 10 minutes

| EC50 | SMILES |
| --- | --- |
| 0.04 µg/mL (≈ 0.0674 µM) | C=C[C@@]1(C)CC(=O)[C@]2(O)[C@@]3(C)[C@@H](O)CCC(C)(C)[C@@H]3[C@H](OC(=O)COC(=O)CN3CCCCC3)[C@H](OC(C)=O)[C@@]2(C)O1 |
| 0.006 µg/mL (≈ 0.00986 µM) | C=C[C@@]1(C)CC(=O)[C@]2(O)[C@@]3(C)[C@@H](O)CCC(C)(C)[C@@H]3[C@H](OC(=O)COC(=O)CN3CCN(C)CC3)[C@H](OC(C)=O)[C@@]2(C)O1 |
| 0.072 µg/mL (≈ 0.121 µM) | C=C[C@@]1(C)CC(=O)[C@]2(O)[C@@]3(C)[C@@H](O)CCC(C)(C)[C@@H]3[C@H](OC(=O)COC(=O)CN3CCOCC3)[C@H](OC(C)=O)[C@@]2(C)O1 |
| 0.086 µg/mL (≈ 0.142 µM) | C=C[C@@]1(C)CC(=O)[C@]2(O)[C@@]3(C)[C@@H](O)CCC(C)(C)[C@@H]3[C@H](OC(=O)COC(=O)CCN3CCCCC3)[C@H](OC(C)=O)[C@@]2(C)O1 |
| 0.058 µg/mL (≈ 0.102 µM) | C=C[C@@]1(C)CC(=O)[C@]2(O)[C@@]3(C)[C@@H](O)CCC(C)(C)[C@@H]3[C@H](OC(=O)COC(=O)CCN(C)C)[C@H](OC(C)=O)[C@@]2(C)O1 [2 OAc N(CH3)2] |
| 0.02 µg/mL (≈ 0.0371 µM) | C=C[C@@]1(C)CC(=O)[C@]2(O)[C@@]3(C)[C@@H](O)CCC(C)(C)[C@@H]3[C@H](OC(=O)COC(=O)CCN)[C@H](OC(C)=O)[C@@]2(C)O1 [2 OAc NH2] |

| SMILES | EC50 |
| --- | --- |
| C=C[C@@]1(C)CC(=O)[C@]2(O)[C@@]3(C)[C@@H](O)CCC(C)(C)[C@@H]3[C@H](OC(=O)COC(=O)CN(CC)CC)[C@H](OC(C)=O)[C@@]2(C)O1 [1 OAc N(C2 H5)2, 7β-Acetoxy-6β-(2-N,N-diethylaminoacetoxyacetoxy)-8,13-epoxy-1α,9α-dihydroxylabd-14-en-11-one hydrochloride sesquihydrate] | 0.03 µg/mL |
| C=C[C@@]1(C)CC(=O)[C@]2(O)[C@@]3(C)[C@@H](O)CCC(C)(C)[C@@H]3[C@H](OC(=O)COC(=O)CN)[C@H](OC(C)=O)[C@@]2(C)O1 [1 OAc NH2, 7β-acetoxy-8,13-epoxy-6β-(2-glycinyloxyacetoxy)-1α,9α-dihydroxylabd-14-en-11-one hydrochloride] | 0.008 µg/mL |
| C=C[C@@]1(C)CC(=O)[C@]2(O)[C@@]3(C)[C@@H](O)CCC(C)(C)[C@@H]3[C@H](OC(=O)COC(=O)CN(C(C)C)C(C)C)[C@H](OC(C)=O)[C@@]2(C)O1 [1 OAc N[CH(CH3)2]2, 7β-Acetoxy-6β-(2-N,N-diisopropylaminoacetoxyacetoxy)-8,13-epoxy-1α,9α-dihydroxylabd-14-en-11-one hydrochloride monohydrate] | 0.14 µg/mL |
| C=C[C@@]1(C)CC(=O)[C@]2(O)[C@@]3(C)[C@@H](O)CCC(C)(C)[C@@H]3[C@H](OC(=O)COC(=O)CN)[C@H](O)[C@@]2(C)O1 [1 OH NH2, 8,13-epoxy-6β-(2-glycinyloxyacetoxy)-1α,7β, 9α-trihydroxylabd-14-en-11-one hydrochloride] | > 10 µg/mL |

system: Blood pressure in cats; assay: Test for an antihypertensive effect: blood pressure in cats; format: in vivo; settings: 0.1 mg/kg i.v., anesthetized cats, formula Ia
Description: Test for an antihypertensive effect
Cats of both sexes and weighing 3 to 4 kg are anesthetized with ether and maintained under chloralose anesthesia (70 mg/kg i.v.). Cannulas are placed in the femoral artery and femoral vein to record the blood pressure and to administer the medicament, respectively. The blood pressure in the femoral artery is recorded via a Statham P 23 Db pressure transducer on a Nihon-Kohden pen recorder for physiological purposes. The compound to be tested is dissolved in distilled water and administered intravenously. The fall in blood pressure and the duration of the effect lowering blood pressure are noted.

| SMILES | duration (of fall of B.P.) | fall of B.P. |
| --- | --- | --- |
| C=C[C@@]1(C)CC(=O)[C@]2(O)[C@@]3(C)[C@@H](O)CCC(C)(C)[C@@H]3[C@H](O)[C@H](OC(=O)COC(=O)CN3CCCCC3)[C@@]2(C)O1 | 40 min | 25 mm Hg |
| C=C[C@@]1(C)CC(=O)[C@]2(O)[C@@]3(C)[C@@H](O)CCC(C)(C)[C@@H]3[C@H](O)[C@H](OC(=O)COC(=O)CN)[C@@]2(C)O1 [1 NH2, 8,13-Epoxy-7β-(2-glycinyloxyacetoxy)-1α,6β,9α-trihydroxylabd-14-en-11-one monohydrochloride] | 120 min | 20 mm Hg |
| C=C[C@@]1(C)CC(=O)[C@]2(O)[C@@]3(C)[C@@H](O)CCC(C)(C)[C@@H]3[C@H](O)[C@H](OC(=O)COC(=O)CN(C(C)C)C(C)C)[C@@]2(C)O1 [1 NH[CH(CH3)2]2] | 125 min | 25 mm Hg |
| C=C[C@@]1(C)CC(=O)[C@]2(O)[C@@]3(C)[C@@H](O)CCC(C)(C)[C@@H]3[C@H](O)[C@H](OC(=O)COC(=O)CN3CCN(C)CC3)[C@@]2(C)O1 [drawing 61] | 40 min | 20 mm Hg |
| C=C[C@@]1(C)CC(=O)[C@]2(O)[C@@]3(C)[C@@H](O)CCC(C)(C)[C@@H]3[C@H](O)[C@H](OC(=O)COC(=O)CN3CCOCC3)[C@@]2(C)O1 [drawing 62] | 60 min | 30 mm Hg |

same assay, conditions: 0.3 mg/kg i.v., anesthetized cats, formula Ia

| SMILES | duration (of fall of B.P.) | fall of B.P. |
| --- | --- | --- |
| C=C[C@@]1(C)CC(=O)[C@]2(O)[C@@]3(C)[C@@H](O)CCC(C)(C)[C@@H]3[C@H](O)[C@H](OC(=O)COC(=O)CNC(=O)OC(C)(C)C)[C@@]2(C)O1 [1 NHBoC] | 35 min | 30 mm Hg |
| C=C[C@@]1(C)CC(=O)[C@]2(O)[C@@]3(C)[C@@H](O)CCC(C)(C)[C@@H]3[C@H](O)[C@H](OC(=O)COC(=O)CN3CCN(C(=O)OCC)CC3)[C@@]2(C)O1 [drawing 63] | 30 min | 35 mm Hg |

same assay, conditions: 1 mg/kg i.v., anesthetized cats, formula Ia

| SMILES | duration (of fall of B.P.) | fall of B.P. |
| --- | --- | --- |
| C=C[C@@]1(C)CC(=O)[C@]2(O)[C@@]3(C)[C@@H](O)CCC(C)(C)[C@@H]3[C@H](O)[C@H](OC(=O)COC(=O)CN3CCC(c4ccccc4)CC3)[C@@]2(C)O1 [drawing 60] | 45 min | 60 mm Hg |
| C=C[C@@]1(C)CC(=O)[C@]2(O)[C@@]3(C)[C@@H](O)CCC(C)(C)[C@@H]3[C@H](O)[C@H](OC(=O)COC(=O)CNc3cc(OC)c(OC)c(OC)c3)[C@@]2(C)O1 [drawing 64] | 60 min | 80 mm Hg |
